{"source": "patent US5723165A", "about": "“Aspartyldipeptide derivatives and sweetener compositions containing the same” (Ajinomoto Co., Inc., priority 1994, dated 1998)", "key": {"[1]": {"assay": "Sensory evaluation of sweetness potency relative to sugar", "conditions": "for Sweetness Potency: Table 1, based on an aqueous solution of 4% sucrose having a sweetness potency of 1 (one); for sweetness potency value: sensory evaluation, running text"}, "[2]": {"test_system": "ICR male mice", "conditions": "oral administration of 2.0 g/kg once"}, "[3]": {"assay": "Stability (survival rate) in acidic aqueous solution by HPLC", "conditions": "pH 3, 80° C., 7 hours, comparative compound = α-L-aspartyl-D-α-aminobutyric acid (S)-α-ethylbenzylamide", "method": "With respect to stability in an acidic aqueous solution, the percentage (survival rate) of the compound still surviving in an acidic aqueous solution having a pH of 3 at 80° C. for 7 hours by HPLC was measured."}}}
{"smiles": "CC[C@H](NC(=O)C(C)(CC)NC(=O)[C@@H](N)CC(=O)O)c1ccccc1", "note": "(mixture of isomers) [Example 10, α-L-aspartyl-DL-isovaline (S)-α-ethylbenzylamide]", "values": [{"measurement": "Sweetness Potency", "setting": "[1]", "result": 100}, {"measurement": "sweetness potency value", "setting": "[1]", "result": "100 times that of sugar"}]}
{"smiles": "CC[C@H](NC(=O)C(NC(=O)[C@@H](N)CC(=O)O)c1ccco1)c1ccccc1", "note": "(mixture of isomers)", "values": [{"measurement": "toxicity", "setting": "[2]", "result": "no problematic toxicity"}]}
{"smiles": "CC[C@H](NC(=O)C(NC(=O)[C@@H](N)CC(=O)O)c1ccco1)c1ccccc1", "note": "(mixture of isomers) [Example 4, α-L-aspartyl-DL-furylglycine (S)-α-ethylbenzylamide]", "values": [{"measurement": "Sweetness Potency", "setting": "[1]", "result": 1200}, {"measurement": "sweetness potency value", "setting": "[1]", "result": "1200 times that of sugar"}, {"measurement": "sweetness potency value", "setting": "[1]; listed as α-L-aspartyl-DL-furylglycine(S)-α-ethylbenzylamide", "result": "about 1200 times that of sugar"}]}
{"smiles": "COC[C@H](NC(=O)C(NC(=O)[C@@H](N)CC(=O)O)c1ccco1)c1ccccc1", "note": "(mixture of isomers) [Example 5, α-L-aspartyl-DL-furylglycine (R)-α-methoxymethylbenzylamide]", "values": [{"measurement": "Sweetness Potency", "setting": "[1]", "result": 1200}, {"measurement": "sweetness potency value", "setting": "[1]", "result": "1200 times that of sugar"}]}
{"smiles": "COC[C@H](NC(=O)C(NC(=O)[C@@H](N)CC(=O)O)c1ccco1)c1ccccc1", "note": "(mixture of isomers) [α-L-aspartyl-DL-furylglycine (R)-α-methoxymethylbenzylamide]", "values": [{"measurement": "toxicity", "setting": "[2]", "result": "no problematic toxicity"}, {"measurement": "sweetness potency value", "setting": "[1]", "result": "about 1200 times that of sugar"}]}
{"smiles": "CCC(NC(=O)C(CC(C)C)NC(=O)C(N)CC(=O)O)c1ccccc1", "note": "[D-Leu (S) Et Ph]", "values": [{"measurement": "Sweetness Potency", "setting": "[1]", "result": 100}]}
{"smiles": "CCC(NC(=O)C(NC(=O)C(N)CC(=O)O)C(C)OC)c1ccccc1", "note": "[D-Thr(Me) (S) Et Ph]", "values": [{"measurement": "Sweetness Potency", "setting": "[1]", "result": 150}]}
{"smiles": "CCC(NC(=O)C(NC(=O)C(N)CC(=O)O)C(C)CC)c1ccccc1", "note": "[D-allo-Ile (S) Et Ph]", "values": [{"measurement": "Sweetness Potency", "setting": "[1]", "result": 90}]}
{"smiles": "CC[C@H](NC(=O)[C@H](NC(=O)[C@@H](N)CC(=O)O)[C@H](C)O)c1ccccc1", "note": "[Example 1, α-L-aspartyl-D-threonine (S)-α-ethylbenzylamide]", "values": [{"measurement": "toxicity", "setting": "[2]", "result": "no problematic toxicity"}, {"measurement": "Sweetness Potency", "setting": "[1]", "result": 1300}, {"measurement": "sweetness potency value", "setting": "[1]", "result": "1300 times that of sugar"}, {"measurement": "sweetness potency value", "setting": "[1]; listed as α-L-aspartyl-D-threonine(S)-α-ethylbenzylamide", "result": "about 1300 times that of sugar"}]}
{"smiles": "COC[C@H](NC(=O)[C@H](NC(=O)[C@@H](N)CC(=O)O)[C@H](C)O)c1ccccc1", "note": "[Example 2, α-L-aspartyl-D-threonine (R)-α-methoxymethylbenzylamide]", "values": [{"measurement": "Sweetness Potency", "setting": "[1]", "result": 500}, {"measurement": "sweetness potency value", "setting": "[1]", "result": "500 times that of sugar"}]}
{"smiles": "CC[C@H](NC(=O)[C@H](NC(=O)[C@@H](N)CC(=O)O)[C@H](C)CC)c1ccccc1", "note": "[Example 3, α-L-aspartyl-D-isoleucine (S)-α-ethylbenzylamide]", "values": [{"measurement": "Sweetness Potency", "setting": "[1]", "result": 500}, {"measurement": "sweetness potency value", "setting": "[1]", "result": "500 times that of sugar"}]}
{"smiles": "CC[C@H](NC(=O)C1(NC(=O)[C@@H](N)CC(=O)O)CCCC1)c1ccccc1", "note": "[Example 6, α-L-aspartyl-α-aminocyclopentanecarboxylic acid (S)-α-ethylbenzylamide]", "values": [{"measurement": "stability (survival rate in an acidic aqueous solution) relative to comparative compound", "setting": "[3]", "result": "about 10 times that of the comparative"}, {"measurement": "Sweetness Potency", "setting": "[1]", "result": 1000}, {"measurement": "sweetness potency value", "setting": "[1]", "result": "1000 times that of sugar"}]}
{"smiles": "CC[C@H](NC(=O)C1(NC(=O)[C@@H](N)CC(=O)O)CCCCC1)c1ccccc1", "note": "[Example 7, α-L-aspartyl-α-aminocyclohexanecarboxylic acid (S)-α-ethylbenzylamide]", "values": [{"measurement": "stability (survival rate in an acidic aqueous solution) relative to comparative compound", "setting": "[3]", "result": "about 9 times that of the comparative"}, {"measurement": "Sweetness Potency", "setting": "[1]", "result": 1000}, {"measurement": "sweetness potency value", "setting": "[1]", "result": "1000 times that of sugar"}]}
{"smiles": "CC[C@H](NC(=O)C(CC)(CC)NC(=O)[C@@H](N)CC(=O)O)c1ccccc1", "note": "[Example 9, α-L-aspartyl-α,α-diethylglycine (S)-α-ethylbenzylamide]", "values": [{"measurement": "Sweetness Potency", "setting": "[1]", "result": 200}, {"measurement": "sweetness potency value", "setting": "[1]", "result": "1000 times that of sugar"}]}
{"smiles": "COC[C@H](NC(=O)[C@H](NC(=O)[C@@H](N)CC(=O)O)C(C)C)c1ccccc1", "note": "[Example 11, α-L-aspartyl-D-valine (R)-α-methoxymethylbenzylamide]", "values": [{"measurement": "Sweetness Potency", "setting": "[1]", "result": 1300}, {"measurement": "sweetness potency value", "setting": "[1]", "result": "1300 times that of sugar"}]}
{"smiles": "COC[C@H](NC(=O)[C@H](NC(=O)[C@@H](N)CC(=O)O)c1ccccc1)c1ccccc1", "note": "[Example 12, α-L-aspartyl-D-phenylglycine (R)-α-methoxymethylbenzylamide]", "values": [{"measurement": "Sweetness Potency", "setting": "[1]", "result": 500}, {"measurement": "sweetness potency value", "setting": "[1]", "result": "500 times that of sugar"}]}
{"smiles": "COC[C@H](NC(=O)C1(NC(=O)[C@@H](N)CC(=O)O)CCCCC1)c1ccccc1", "note": "[Example 13, α-L-aspartyl-α-aminocyclohexanecarboxylic acid (R)-α-methoxymethylbenzylamide]", "values": [{"measurement": "Sweetness Potency", "setting": "[1]", "result": 250}, {"measurement": "sweetness potency value", "setting": "[1]", "result": "250 times that of sugar"}]}
{"smiles": "COC[C@@H](NC(=O)[C@H](NC(=O)[C@@H](N)CC(=O)O)C(C)C)C(C)C", "note": "[Example 14, α-L-aspartyl-D-valine (S)-α-methoxymethyl-β-methylpropylamide]", "values": [{"measurement": "Sweetness Potency", "setting": "[1]", "result": 40}, {"measurement": "sweetness potency value", "setting": "[1]", "result": "40 times that of sugar"}]}
{"smiles": "CCOC[C@H](NC(=O)[C@H](NC(=O)[C@@H](N)CC(=O)O)C(C)C)c1ccccc1", "note": "[Example 15, α-L-aspartyl-D-valine (R)-α-ethoxymethylbenzylamide]", "values": [{"measurement": "Sweetness Potency", "setting": "[1]", "result": 500}, {"measurement": "sweetness potency value", "setting": "[1]", "result": "500 times that of sugar"}]}
{"smiles": "CC[C@@H](NC(=O)[C@@H](N)CC(=O)O)C(=O)N[C@@H](COC)c1ccccc1", "note": "[Example 16, α-L-aspartyl-D-α-aminobutyric acid (R)-α-methoxymethylbenzylamide]", "values": [{"measurement": "Sweetness Potency", "setting": "[1]", "result": 1200}, {"measurement": "sweetness potency value", "setting": "[1]", "result": "1200 times that of sugar"}]}
{"smiles": "CC[C@@H](C)[C@@H](NC(=O)[C@@H](N)CC(=O)O)C(=O)N[C@@H](COC)c1ccccc1", "note": "[Example 17, α-L-aspartyl-D-isoleucine (R)-α-methoxymethylbenzylamide]", "values": [{"measurement": "Sweetness Potency", "setting": "[1]", "result": 500}, {"measurement": "sweetness potency value", "setting": "[1]", "result": "500 times that of sugar"}]}
{"smiles": "COC[C@H](NC(=O)[C@@H](C)NC(=O)[C@@H](N)CC(=O)O)c1ccccc1", "note": "[Example 18, α-L-aspartyl-D-alanine (R)-α-methoxymethylbenzylamide]", "values": [{"measurement": "Sweetness Potency", "setting": "[1]", "result": 300}, {"measurement": "sweetness potency value", "setting": "[1]", "result": "300 times that of sugar"}]}
{"smiles": "COC[C@H](NC(=O)[C@H](NC(=O)[C@@H](N)CC(=O)O)C(C)C)C(C)C", "note": "[Example 19, α-L-aspartyl-D-valine (R)-α-methoxymethyl-β-methylpropylamide]", "values": [{"measurement": "Sweetness Potency", "setting": "[1]", "result": 30}, {"measurement": "sweetness potency value", "setting": "[1]", "result": "30 times that of sugar"}]}
{"smiles": "COC[C@@H](NC(=O)[C@H](NC(=O)[C@@H](N)CC(=O)O)C(C)C)c1ccccc1", "note": "[Example 20, α-L-aspartyl-D-valine (S)-α-methoxymethylbenzylamide]", "values": [{"measurement": "Sweetness Potency", "setting": "[1]", "result": "< 20"}, {"measurement": "sweetness potency value", "setting": "[1]", "result": "not more than 20 times that of sugar"}]}
{"smiles": "COC[C@H](NC(=O)[C@H](NC(=O)[C@@H](N)CC(=O)O)C(C)C)c1ccccc1", "note": "[α-L-aspartyl-D-valine (R)-α-methoxymethylbenzylamide]", "values": [{"measurement": "toxicity", "setting": "[2]", "result": "no problematic toxicity"}, {"measurement": "sweetness potency value", "setting": "[1]", "result": "about 1300 times that of sugar"}]}
{"smiles": "CC[C@@H](NC(=O)[C@@H](N)CC(=O)O)C(=O)N[C@@H](COC)c1ccccc1", "note": "[α-L-aspartyl-D-α-aminobutyric acid (R)-α-methoxymethylbenzyl]", "values": [{"measurement": "sweetness potency value", "setting": "[1]", "result": "about 1200 times that of sugar"}]}
{"smiles": "CC[C@H](NC(=O)C1(NC(=O)[C@@H](N)CC(=O)O)CCCCC1)c1ccccc1", "note": "[α-L-aspartyl-α-aminocyclohexanecarboxylic acid (S)-α-ethylbe]", "values": [{"measurement": "stability (survival rate in an acidic aqueous solution) relative to comparative compound", "setting": "[3]", "result": "about 9 times that of the comparative compound"}, {"measurement": "toxicity", "setting": "[2]", "result": "no problematic toxicity"}, {"measurement": "sweetness potency value", "setting": "[1]", "result": "about 1000 times that of sugar"}]}
{"smiles": "CC[C@H](NC(=O)C1(NC(=O)[C@@H](N)CC(=O)O)CCCC1)c1ccccc1", "note": "[α-L-aspartyl-α-aminocyclopentanecarboxylic acid (S)-α-ethylb]", "values": [{"measurement": "stability (survival rate in an acidic aqueous solution) relative to comparative compound", "setting": "[3]", "result": "about 10 times that of the comparative compound"}, {"measurement": "sweetness potency value", "setting": "[1]", "result": "about 1000 times that of sugar"}]}
